Assay: gradient 5% acetonitrile 3 min, to 50% in 2 min, to 85% in 15 min, held 3 min, 100 µL/min
Conditions: column: Zorbax Extend-C18 2.1 x 50 mm; eluents: water / acetonitrile, 0.1% formic acid
How it was run: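 Data were gathered over 3 months by HPLC coupled to a quadrupole time-of-flight mass spectrometer, operated in positive and negative ionization mode. Mixtures of ~100 pure standards ran on a Zorbax Extend-C18 column (2.1 × 50 mm, 1.8 μm) at 100 μL/min, with water and acetonitrile each containing 0.1% formic acid and dead and dwell volumes of 40 μL and 900 μL. Retention time was read from adduct peaks picked by computer and checked manually.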

SMILES | RP-LC retention time [s]
COC(=O)c1cc(S(=O)(=O)N2CCCC2C(=O)NCc2ccc(Cl)cc2)cn1C (stereo unspecified) | 865
CC(C)CCNC(=O)c1ccc2ccnc(N3CCN(c4ccc(Cl)cc4)CC3)c2c1 | 992
Cc1ccccc1OCC(=O)Nc1ccc2c(c1)N(S(=O)(=O)c1ccccc1)CCC2 | 1030
Cn1cccc1C(=O)N1CCC2(CC1)NC(=O)N(Cc1ccccc1Cl)C2=O | 790
CCC(=O)N1CCc2cc(-c3ccc(C(=O)NCCc4c(C)noc4C)cc3)ccc21 | 750
Cc1ccc(Nc2nc(C)cc(N3CCN(S(=O)(=O)c4cc(C(C)C)ccc4C)CC3)n2)cc1 | 950
CC(CCNC(=O)C(C)n1c2ccccc2c2cnn(C)c(=O)c21)N1CCCC1 (stereo unspecified) | 612
Cc1cc(C)nc(SCCCNC(=O)Nc2cc(C)on2)n1 | 663
CCn1cc(C(=O)NCc2ccc(C)cc2)c2cccnc21 | 811
CCS(=O)(=O)Nc1ccc(-c2noc(COc3ccccc3)n2)cc1 | 923
O=C(CS(=O)Cc1cnn(-c2ccccc2)c1-n1cccc1)NCCc1ccc(Cl)cc1 (stereo unspecified) | 892
CCC1CCCCN1Cc1nc(Cn2ccn3nc(-c4ccc(F)cc4)cc3c2=O)no1 (stereo unspecified) | 704
CCc1cc(=O)n(CC(=O)NCc2cccs2)c(-c2ccccc2)n1 | 1040
CN(C)c1ccc(C(=O)N2CCN(c3cc(-c4ccccc4)[nH]n3)CC2)cc1 | 757
O=C(C1CC(=O)N(c2ccc(F)cc2)C1)N1CCN(CCn2cccn2)CC1 (stereo unspecified) | 556
COc1ccc(OC)c(NC(=O)N2CCOc3ccc(Cl)cc32)c1 | 1010
O=C(NC1CC1)C1CCN(c2nnc(-c3ccccc3)o2)CC1 | 657
COc1cccc(Oc2nccn3c(=O)n(CC(=O)Nc4cccc(C(F)(F)F)c4)nc23)c1 | 919
CN(CCNC(=O)C1CCCN(c2nn3c(=O)c4c(nc3s2)CCCC4)C1)Cc1ccccc1 (stereo unspecified) | 624
CC(C)c1ccc(S(=O)(=O)N(CC(=O)N2CCNCC2)CC2CCCO2)cc1 (stereo unspecified) | 602
O=C(NCC1CCCO1)C1COC2(CCN(C(=O)C3CC3)CC2)N1C(=O)c1ccccc1 (stereo unspecified) | 608
Cc1ccc(Nc2c(-c3cc(Br)ccc3O)nc3ncccn23)cc1 | 1050

SMILES | RP-LC retention time [s]
Cc1csc(-c2cc(S(=O)(=O)N3CCN(c4ncccn4)CC3)c(C)n2C)n1 | 958
Cn1c(=O)sc2cc(S(=O)(=O)N3CCC(C(=O)Nc4cccc(Cl)c4)CC3)ccc21 | 953
Cc1ccnc(NC(=O)c2ccc(Cn3cncn3)cc2)c1 | 593
Cc1ccc(S(=O)(=O)N2CCC(c3cc4n(n3)CCCN(C)C4=O)CC2)cc1C | 806
COc1ccc(NC(=O)c2cc(C)n3nccc3n2)c(C)c1 | 886
COc1ccc(NC(=O)NCCc2cn(C)c3ncccc23)c(OC)c1 | 640
Oc1ccccc1-c1nc2ccc(Cl)cn2c1Nc1ccc(Cl)cc1 | 1090
CCc1ccc(CN(CC(=O)N2CCNCC2)C(=O)c2sccc2C)cc1 | 671
O=C(Nc1ccc2c(c1)OCCO2)C1CCN(C(=O)C2Sc3ccccc3NC2=O)CC1 (stereo unspecified) | 730
CCc1ccc(NS(=O)(=O)c2cc3n(c2)CCCN(CC)C3=O)cc1 | 801
CCc1ccc(S(=O)(=O)NCCc2cn(CC(C)C)c3ncccc23)cc1 | 946
Cc1ccc(CNC(=O)Cn2cnc3c(sc4nc(-c5ccccc5)ccc43)c2=O)cc1 | 880
O=C(CN1C(=O)C(C(=O)N2CCCCC2)Sc2ccccc21)N1CCN(c2ccccc2)CC1 (stereo unspecified) | 907
Cc1ccc(Nc2c(-c3ccc(N(C)C)cc3)nc3ncccn23)c(C)c1 | 782
Cc1ccc(Nc2c(-c3ccc(O)cc3)nc3ccc(C)cn23)cc1 | 721
O=C(NCc1cccnc1)C1CN(C(=O)c2cccs2)CC12CCCCC2 (stereo unspecified) | 619
Cc1nc(C)c(C(=O)N2CCC(C(=O)N3CCCCCCNC(=O)CC3)CC2)s1 | 602
CC(=O)N1CCc2cc(N3CC(C(=O)NCc4cccc(Cl)c4)CC3=O)ccc21 (stereo unspecified) | 702
O=C(c1c(F)cccc1F)N1CCC2(CC1)N=C(c1ccc(Cl)cc1)NO2 | 847
COc1cccc(-n2c(N3CCCC(C(=O)NCCC(C)C)C3)nc3ccsc3c2=O)c1 (stereo unspecified) | 872
O=C(c1ccsc1)N1CC(Oc2ccc(-c3nc(-c4ccccc4)no3)cc2)C1 | 1120
CCc1nc(OCC(=O)NCc2ccccc2Cl)c2c(C)c(C)oc2n1 | 1020

SMILES | RP-LC retention time [s]
COc1ccc(OC)c(S(=O)(=O)N(C)CC2(C)CCOCC2)c1 | 852
CCOC(=O)c1c(S(=O)(=O)N2CCC(C(=O)NC3CC3)CC2)c(C)n(C)c1C | 672
N#Cc1cccc(-c2nc(-c3cccc(-c4ccn[nH]4)c3)no2)c1 | 920
CCCCN1C(=O)CN(S(=O)(=O)c2ccc(C)cc2)CC1(C)C(=O)NCc1ccccc1 (stereo unspecified) | 974
CCOC(=O)N1CCN(S(=O)(=O)CCNC(=O)c2ccccc2)CC1 | 669
Cc1noc(-c2nn(C)c3c2CN(C(=O)Nc2ccc(F)cc2)CC3)n1 | 723
CC(C)n1c(=O)sc2cc(S(=O)(=O)N3CCC(C(=O)N4CCc5ccccc54)CC3)ccc21 | 1020
CC(C)n1c(=O)oc2cc(-c3noc(-c4ccc(F)cc4)n3)ccc21 | 1170
COc1cc(-c2nc3nc(C)cc(C)n3c2Nc2ccc(Cl)cc2)ccc1O | 656
CCCn1cc(S(=O)(=O)NCc2ccccc2F)c2cccnc21 | 861
Cc1ccc(-c2coc(-c3ccc(NC(=O)Cc4cccs4)cc3)n2)c(C)c1 | 1330
Cc1ccc(-c2csc(-n3nc(C)c(CC(=O)Nc4ccc(Br)cc4)c3C)n2)cc1 | 1350
CSc1ccc(-c2nc3ccc(Cl)cn3c2Nc2ccccc2C)cc1 | 954
CCN1C(=O)CCc2cc(NC(=O)C3CCC3)ccc21 | 691
CC1(CNC(=O)Cc2c[nH]c3ccccc23)CCOCC1 | 668
COc1cccc(S(=O)(=O)N2CCC(n3cnnc3-c3ccccc3)CC2)c1 | 775
O=C(Nc1ccc2c(c1)OCO2)C1CC(=O)N(CCc2c[nH]c3ccc(Cl)cc23)C1 (stereo unspecified) | 801
CCNC(=O)N1CCCC(c2cccc(C(=O)NCc3ccc(F)cc3F)c2)C1 (stereo unspecified) | 804
O=C(NCC(=O)N1CCCc2ccccc21)c1ccccc1 | 777
Cc1ccc2c(Nc3ccc(F)c(C)c3)c(-c3nc(C)no3)cnc2n1 | 764
Cc1cccc(S(=O)(=O)Nc2cccc(-c3cn4ccccc4n3)c2)c1 | 644
N#Cc1cccc(C(=O)N2CCCn3nc(-c4cccs4)cc3C2)c1 | 720
